{"source": "patent US20220257741A1", "about": "“COMBINATION THERAPY FOR CANCER” (IO Biotech ApS, priority 2016, published 2022)", "key": {"THP-1 cells": {"system": "THP-1 cells", "assay": "51Cr-release assay, PBMC killing of THP-1 (Example 4)", "format": "cell-based", "conditions": "peptide 0.1 μM, day 17, range of E/T ratios", "procedure": "Buffycoats were thawed (day 0), washed twice, resuspended in medium, counted and plated into wells as set out in Table Z4. THP-1 cells were irradiated with 30 GY and washed twice in medium. THP-1 cells were counted and added to PBMC containing wells as set out in Table Z4 (total volume 2 ml). Plates were placed in an incubator at 37 degrees. On days 7 and 14, 1 ml supernatant/well was removed. Cells were harvested and analyzed for cytotoxic activity on day 17. A standard ^51Cr-release assay was used to measure the cytotoxic potential of the peptide treated PBMCs. ^51Cr labeled THP-1 cells were used as target cells and peptide treated PBMCs as effector cells. Triton-X treated wells was used as maximum measurable lysis and medium alone as minimum lysis.\n% Specific lysis=((cpmsample−cpmminimum)/(cpmmaximum−cpmminimum))×100%"}, "PBMC": {"system": "PBMC", "assay": "Direct IFN-γ ELISpot of patient PBMC stimulated with IO102 peptide", "format": "cell-based, human", "conditions": "patients treated with Ipilimumab without IDO-vaccine, before and after three series"}, "[1]": {"assay": "Phase I clinical trial, adverse events graded by CTCAE v. 4.0", "format": "in vivo, human", "excerpt": "Patients were enrolled in a First-in-Human phase I clinical trial at the Department of Oncology at Herlev Hospital, University of Copenhagen (Herlev, Denmark) from March 2014 to August 2014. The study was originally designed as a two-armed phase I study, combining IDO1-derived peptide vaccination with standard-of-care treatment with either Ipilimumab or Vemurafenib. Only data from patients treated with Ipilimumab in combination with vaccine is reported. […]\nPrimary end-point was toxicity. In addition, immune-response against the vaccine peptide and the clinical benefit of treatment were assessed. […]\nSafety of the study treatment was assessed in terms of occurrence of adverse events, graded according to Common Terminology Criteria for Adverse Events (CTCAE) version 4.0. Anti-tumour activity was evaluated with positron emission tomography-computed tomography (PET-CT) scans obtained at baseline (up to 28 days before treatment initiation) after 12 weeks and every 8-12 weeks thereafter until progression. CT scans were evaluated according to Response Evaluation Criteria In Solid Tumors (RECIST) version 1.1. […]"}, "metastatic melanoma": {"system": "metastatic melanoma", "conditions": "phase III; cited from earlier work"}, "[2]": {"system": "Tregs and MDSC in peripheral blood", "assay": "Flow cytometry of regulatory cells in peripheral blood of patients", "format": "in vivo, human", "conditions": "patients treated with Ipilimumab without the vaccine (data not shown)", "procedure": "PBMC samples was thawed in 37° C. RPMI 1640 medium (Lonza) supplemented with 2.5 ml DNAse containing Pulmozyme (Roche) and 0.26 mmol MgCl (Herlev Hospital Pharmacy) per 100 ml buffer. All stainings were done in phosphate buffered saline (PBS)(Lonza) containing 0.5% bovine serum albumin (Sigma-Aldrich). The following antibodies were used: FoxP3-PE, HLA-DR-HV500, CD3-PE-Cy7, CD19-PE-Cy7, CD56-PE-Cy7, CD4-HV500, CD11b-APC, CD3-APC (purchased from BD Bioscience), CD33-FITC, CD124-PE (purchased from BD Pharmigen), HELIOS-PerCP-Cy5.5, CD14-BV421, CD25-BV421 (all purchased from Biolegend), CD127-FITC, CD39-PE-Cy7 (purchased from eBioscience). Additionally, all samples were stained with the LIVE/DEADR Fixable Near-IR Dead Cell Stain Kit (life technologies). For intracellular staining of transcription factors, we used the Foxp3/Transcription Factor Staining Buffer Set (eBioscience) according to the manufacturors instructions. Cells were acquired on a FACSCanto II using FACSDiva Software version 6.1.3 (BD Biosciences). Analysis of flow data was done using FlowJo software version 10 OSX (TreeStar, Inc., Ashland, Oreg.). Data-analysis was done after filtering of dead cells and doublets/triplets.\nTregs were defined as CD3+CD4+CD25highCD127-FOXP3+.\nMDSC were defined as PBMC negative for lineage-markers CD3, CD19 and CD56 and additionally HLADR-/lowCD14+CD11b+CD33+CD124−."}, "TC-1 tumour": {"system": "TC-1 tumour", "assay": "TC-1 tumour model, peptide vaccination (Examples 7 and 8)", "format": "in vivo, C57BL/6 mice", "procedure": "C57BL/6 mice harbouring TC-1 tumour were treated with TC-1 specific E7-peptide ([…]; SEQ ID NO: 35) or IDO-Pep1 ([…]; SEQ ID NO: 33) and the efficacy of the peptide vaccines was assessed by tumour burden and survival. The mouse IDO peptide sequence (IDO-Pep1) was selected to provide a murine analog for the human IDO peptides tested in the earlier Examples, because the sequence of murine IDO1 differs to that of human IDO1.\n4-6 week-old C57BL/6 mice were injected with 70,000 cell/ mouse of TC-1 cells. Treatment in respective groups was started when tumour reached an average size of approximately 0.075 cm3 (approx. 10 days after tumour inoculation). Peptides used for vaccination included TC1-specific E7-peptide ([…]; SEQ ID NO: 35) and IDO-Pep1 ([…]; SEQ ID NO: 33). The mouse IDO peptide was designed based on MHC class I and II binding algorithm. […] Mice were vaccinated two-three times with one-week interval, and the efficacy of the peptide vaccines was assessed by measuring tumour volume and/or overall survival.\nC57BL/6 mice harbouring TC-1 tumour were treated with TC-1 specific E7-peptide ([…]; SEQ ID NO: 35), or IDO-Pep1 ([…]; SEQ ID NO: 33), or a combination of both E7 and IDO-Pep1. The efficacy of the vaccines was assessed by overall survival. […]"}}, "note": "“And” between values parts separate entries of the source, which are not always exact repeats. Equal entries are not always repeated. “Also recorded” adds a separate entry of the source.", "data": [{"substance": "CILDSKLEVEALAQLLTFALK [IDO scrambled]", "values": [{"measurement": "Allogenic killing (lysis) of THP-1 cells by PBMCs", "setting": "THP-1 cells", "result": "induced less lysis of THP-1 cells"}]}, {"substance": "Ipilimumab", "values": [{"measurement": "Induction of IDO-specific cells (IO102 reactivity, ELISpot)", "setting": "PBMC", "result": "no induction of IDO-specific cells"}, {"measurement": "Toxicity, Ipilimumab", "setting": "[1]; adverse reactions by CTCAE v. 4.0, one table line per patient (01i-13i), attributed by treating physician, Ipilimumab 3 mg/kg plus IO102 vaccine", "result": "Grade II choroiditis and None (3×) and Pruritus grade I, Grade I and diarrhoea, and Grade II rash, grade II and diarrhoea (2×) and Grade II rash and Grade II rosacea, grade III and Grade II pruritus and Grade I nausea"}, {"measurement": "Adverse reactions most likely related to Ipilimumab treatment", "setting": "[1]; individual patients, CTCAE grade", "result": "Two patients experienced grade II diarrhoea; also recorded: grade III diarrhoea; also recorded: two patients experienced grade II maculopapular rash; also recorded: flare in their pre-existing rosacea; also recorded: grade II choroiditis"}, {"measurement": "Clinical benefit rate", "setting": "metastatic melanoma", "result": "~30", "unit": "%"}, {"measurement": "Overall response rate", "setting": "metastatic melanoma", "result": 10.9, "unit": "%"}, {"measurement": "Level of MDSC in peripheral blood", "setting": "[2]", "result": "no change in MDSC"}, {"measurement": "Level of Tregs in peripheral blood", "setting": "[2]", "result": "Reduced levels of Tregs"}]}, {"substance": "MTYENMDIL (listed as Mus musculus) [IDO-Pep1]", "values": [{"measurement": "Anti-tumour effect (tumour volume and survival)", "setting": "TC-1 tumour; 100 μg/mouse s.c. with PADRE and QuilA, therapeutic", "result": "anti-tumour protective effect; also recorded: greater protection than when vaccinated with tumour-specific peptide antigen, E7 peptide"}]}, {"substance": "RAHYNIVTF (Fragment of the E7 oncoprotein of HPV) [E7 peptide]", "values": [{"measurement": "Protection (overall survival)", "setting": "TC-1 tumour; 100 μg/mouse of each peptide s.c. with PADRE and QuilA", "result": "has therapeutic efficacy"}]}]}
